Measurements as given in patent publication US11628179B2, “Compounds for treating and preventing extracellular histone mediated pathologies” (priority 2017, dated 2023).
Several values for one entry are separate records, joined by “and”; a condition that tells them apart may be missing. Equal values may be shown once. Where a name gives a salt, the structure may show the parent alone.

How the values were obtained:
[1] = Stability of mCBS vs CBS in formulated clinical material (HPLC); type: physicochemical; conditions: formulated clinical material in phosphate buffer, 5±3° C., 25±2° C./60% RH, 40±2° C./75% RH
Description: Stability studies were carried out at 5±3° C., 25±2° C./60% RH and 40±2° C./75% RH ° C. conditions. Levels of both mCBS and cellobiose sulfate (CBS) were tracked in formulated clinical material (i.e. mCBS in phosphate buffer) via HPLC.

human RBCs = assay: Histone-induced RBC aggregation (flow cytometry autofluorescence, SEM); type: cell-based
Sprague Dawley rats = tested on: Sprague Dawley rats
Description: This study examined acute toxicity from single IV administration of mCBS in rats with doses up to 1000 mg/kg.
The acute toxicity of β-O-methyl cellobioside sulfate (mCBS) was assessed in Sprague Dawley rats following intravenous administration of a single bolus dose. A total of five groups of n=3 adult female rats were treated with 10, 30, 100, 300 and 1000 mg/kg doses of mCBS test item in the form of the sodium salt (mCBS.Na) in this dose range finding study. […] The rats were then observed for 7 days prior to termination without necropsy.

[2] = tested on: Human platelets in whole blood; assay: Histone-induced platelet degranulation (ATP release); type: cell-based; conditions: compounds added prior to histones 400 μg/mL
[3] = mCBS vs CBS levels in bulk powder stored at −20° C. (CAD); type: physicochemical
Description: Table 2b compares mCBS vs CBS levels in a representative batch of bulk powder when stored at −20° C. over 24 months. T is for time in months. T=0 or T0 represents analytical results carried out on completion of manufacture. Subsequent analysis indicated are relative to the initial analysis of the drug powder or formulation (e.g. […] Analytical method employing CAD (Charged Aerosol Detector) was used to measure the level of mCBS purity and its impurities and expressed as CAD %.

rat plasma proteins = assay: Plasma protein binding by ultrafiltration, rat plasma; type: in vitro ADME; conditions: for Concentration of mCBS, 200 ng/mL Post-filter / Concentration of mCBS, 200 ng/mL Pre-filter / Concentration of mCBS, 2000 ng/mL Post-filter / Concentration of mCBS, 2000 ng/mL Pre-filter: replicates and Mean
Description: Protein binding was assessed by an ultrafiltration method using Centrifree® Ultrafiltration Devices with a 30000 dalton molecular weight cut-off point. Briefly, known concentrations of mCBS (as free base) were added to human, rat and dog plasma samples and incubated for 20 min at 37° C. The samples were then subject to ultrafiltration to separate protein bound and unbound drug.
mCBS stock solutions (10 μL) were spiked into solutions of each test matrix (490 μL) as listed below in Table 9 to have a final concentration of 200 ng/mL & 2000 ng/m L.
Spiked samples were then incubated at 37° C. for 20 minutes in a water bath. Aliquots of the samples from each test group (500 μL) were transferred to the ultrafiltration devices (n=3) and centrifuged for 20 minutes at 1000 g. After centrifugation, aliquots of the ultrafiltrates (50 μL) were transferred to separate test tubes for extraction, alongside duplicate aliquots of the samples prior to ultrafiltration from each test group.
For quantification of samples before ultrafiltration, samples were analysed against a freshly prepared standard curve in plasma.

[4] = Pharmacokinetics, intravenous bolus 20 mg/kg; type: in vivo, rat
Description: A total of ten blood samples were collected from three rats at time points ranging from pre-dose to 48 hours post-dose. The resulting blood samples were processed to plasma and subsequently analysed for the concentration of mCBS (free-base) using an LC-MS/MS based method. The plasma concentration versus time data were used for calculation of pharmacokinetic parameters.

mice = assay: In-vivo histone toxicity assay, circulating blood cells at 10 min; parameters: species or system mouse; conditions: 100 mg/kg i.p. 10 min prior to histones 50 mg/kg i.v.; bled 10 min later
Description: In-vivo histone toxicity assays. BALB/c female mice (5˜6 weeks of age), that are more prone to histone-induced anemia and easier to inject i.v. at this young age than C57BL/6 mice, were injected i.p. with test compounds at concentrations indicated 10 min prior to i.v. injection of histones (50 mg kg^−1) in phosphate buffered saline. Retro-orbital bleeds were performed at 10 min after histone injection and collected blood added to acid citrate dextrose (ACD), the 10 min blood sample being subjected to hematologic analyses for platelet and erythrocyte content using an ADVIA 2120i Hematology Analyzer. Spleens were also harvested at 10 min post-histone injection and splenic hemoglobin content quantified using a hemoglobin assay kit (Sigma-Aldrich). In the case of 4 h blood samples, male C57/BL/6 mice (6-8 weeks of age) were injected with test compounds and histones as above and plasma isolated and stored frozen for subsequent biochemical testing, with markers for liver (alanine aminotransferase, ALT), kidney (Creatinine, Crea) and general tissue (lactate dehydrogenase, LDH) damage being determined by the Department of Pathology, The Canberra Hospital.
Accordingly, the inventors in this example investigated the protective effect of mCBS on cells within the blood stream following intravenous injection of histones. […]

[5] = IV bolus 20 mg/kg as sodium salt

For `CO[C@@H]1O[C@H](COS(=O)(=O)O)[C@@H](O[C@@H]2O[C@H](COS(=O)(=O)O)[C@@H](OS(=O)(=O)O)[C@H](OS(=O)(=O)O)[C@H]2OS(=O)(=O)O)[C@H](OS(=O)(=O)O)[C@H]1OS(=O)(=O)O` [mCBS, β-O-methyl cellobioside sulfate], the “level relative to starting amount (T=0) over time” value [1] was “very stable”, the “inhibition of histone-induced RBC aggregation” value (human RBCs; 0-200 μg/mL added prior to 400 μg/mL histones) was “inhibit histone-induced RBC aggregation in a dose dependent manner” and the “reversal of histone-induced RBC aggregation” value (human RBCs; histones 400 μg/mL 55 min, then mCBS 5 min) was “near complete inhibition”. For the same compound, the “prevention of histone-induced RBC aggregation” value (human RBCs; mCBS 200 μg/mL, histones 400 μg/mL 60 min) was “prevented”, the “MTD estimate from potency assessment, free base” value (Sprague Dawley rats; IV bolus single and 7-day studies, corrected for potency) was ~600 mg/kg and the “Maximum Tolerated Dose (MTD), as free base” value (Sprague Dawley rats; single IV bolus, corrected for purity and sodium content) was 815 mg/kg. The “histone-induced platelet degranulation (ATP release)” value [2] was “significantly reduced”, the “stability when stored in powder” value ([3]; 24 months) was “high stability” and the “level in bulk powder” value ([3]; T0 (months)) was 98.56 CAD %. The “level in bulk powder” value ([3]; T1) was 98.45 CAD %, the “level in bulk powder” value ([3]; T3) was 98.28 CAD % and the “level in bulk powder” value ([3]; T6) was 98.22 CAD %. The “level in bulk powder” value ([3]; T9) was 97.77 CAD %, the “level in bulk powder” value ([3]; T12) was 98.00 CAD % and the “level in bulk powder” value ([3]; T18) was 97.94 CAD %. For the same compound, the “level in bulk powder” value ([3]; T24) was 98.26 CAD %, the Plasma protein binding (rat plasma proteins; 200 ng/mL) was 19.4% and the Plasma protein binding (rat plasma proteins; 2000 ng/mL) was 19.8%. The “Concentration of mCBS, 200 ng/mL Post-filter” value (rat plasma proteins) was 164 ng/mL and 177 ng/mL and 167 ng/mL, the “Concentration of mCBS, 200 ng/mL Pre-filter” value (rat plasma proteins) was 205 ng/mL and 217 ng/mL and the “Concentration of mCBS, 2000 ng/mL Post-filter” value (rat plasma proteins) was 1710 ng/mL and 1740 ng/mL and 1690 ng/mL. The “Concentration of mCBS, 2000 ng/mL Pre-filter” value (rat plasma proteins) was 2090 ng/mL and 2180 ng/mL, the “Concentration of mCBS, 200 ng/mL Post-filter” value (rat plasma proteins; mean) was 170 ng/mL and the “Concentration of mCBS, 200 ng/mL Pre-filter” value (rat plasma proteins; mean) was 211 ng/mL. For the same compound, the “Concentration of mCBS, 2000 ng/mL Post-filter” value (rat plasma proteins; mean) was 1713 ng/mL, the “Concentration of mCBS, 2000 ng/mL Pre-filter” value (rat plasma proteins; mean) was 2135 ng/mL and the “AUCinf, mean (±SEM)” value [4, 5] was 35000 (±2940) ng·h/mL. The “AUClast, mean (±SEM)” value [4, 5] was 34300 (±2460) ng·h/mL, the “apparent elimination half-life (T½), mean (±SEM)” value [4, 5] was 77.5 (±54.5) h and the “mean residence time (MRT), mean (±SEM)” value [4, 5] was 5.58 (±3.99) h. For the same compound, the “total body clearance (Cl), mean (±SEM)” value [4, 5] was 0.472 (±0.0377) L/h/kg, the “volume of distribution (Vz), mean (±SEM)” value [4, 5] was 46.9 (±30.7) L/kg and the “concentration at time zero (C0), mean (±SEM)” value ([4]; IV bolus 20 mg/kg as sodium salt (16.3 mg/kg free base), plasma, n=3) was 73400 (±8560) ng/mL. For the same compound, the “administered dose removed from the central compartment” value ([4]; IV bolus 20 mg/kg, first 4 hours) was “over 90%” and the “histone-mediated reductions in circulating leukocytes, platelets, erythrocytes and haemoglobin” value (mice) was “significantly inhibited if not completely abolished”.
